Consider two compounds from US8309550B2, “Kinase inhibitors and their use as pharmaceutical agents” (Shanghai Genomics, Inc., priority 2011, dated 2012).

Read-outs that look alike come from different tables or passages of the source.

Broadly, the AUC(0-inf) is total exposure, with the tail of the curve extrapolated. A low value points to less exposure. What is called AUC(0-t) is exposure summed from dosing to a finite time, without extrapolation to infinity. A high value points to high exposure. As usually defined, the Cmax is the peak of the concentration-time curve. What is called Tmax is the time from dosing to the highest level. Broadly, the half-life is the time needed for the level to fall by half in the phase considered. Lower therefore signals rapid decline.

Data set [1] is described as follows: Pharmacokinetic determination, rat IV/PO study. The class given is in vivo. As to conditions: for MRT inf: read-out: MRT(0-∞). The procedure: Male Sprague-Dawley rats were maintained on food and water ad libitum. They were housed in an individual ventilated caging system. The test compound at a dose of 5 mg/kg and 20 mg/kg was given i.v. and orally to SD rats respectively (3 animals per group). The appropriate quantity compound with free base (Wt.: 346.1) was accurately weighted into a tube and dissolved in NMP, vortexed to get a clear solution. 0.015N HCl in Saline was added and the solution was vortexed to yield a clear and colorless solution at 1 mg/mL for both intravenous and oral administration. The concentration of the test compound in the dosing solution was reconfirmed by HPLC method. […] Plasma samples were collected from retro-orbital puncture at pre-dose and 0.083, 0.25, 0.5, 1, 2, 4, 6, 8, and 24 hours post-dose. All samples and the dose formulation were stored at −20° C. until bioanalysis. The concentrations of the test compound in plasma were determined using a high performance liquid chromatography/mass spectrometry (HPLC/MS/MS) method.

Data set [2] deals with lung carcinoma (H460). Nature of the data set: Inhibition of tumor growth, NCI-H460 in SCID-bg mice. It counts as in vivo. As to conditions: oral once a day. The procedure:
Tumor type: lung carcinoma (H460)
Treatment: Single PO dose for 21 days (starting at day 7 following tumor inoculation)
Endpoint: tumor volume and mean luciferase activity by Xenogen (Caliper) machine:
SCID-bg mice were implanted with NCI-H460 cells at 5×10^6 cells/mouse on Day 0. Compound 18 treatment began on Day 7. […] In model group, the vehicle was used instead of compound 18. Tumor volume and mean luciferase activity by Xenogen technology were measured once per there days.

The subject of data set [3] is Xenograft tumor models (HT-29, H460, Molt-4, PC-3M, HL60). Nature of the data set: Xenograft studies with human tumor cell lines. The class given is in vivo, BALB/c nude mice. Particulars: i.p, qd, 21 days, dosage from 12.5 mg/kg to 100 mg/kg; significant with p<0.05 (T-test). The procedure: Female BALB/c nude mice from SHANGHAI SLAC LABORATORY ANIMAL CO with age of 5 to 6 weeks and body weight of 19 to 20 g were used in the study. Autoclaved water and irradiated food were provided ad libitum, and animals were maintained on a 12-hour light and 12-hour dark cycle. Cages, bedding, and water bottles were autoclaved before use and changed weekly. The health of all animals was determined by daily gross observation of experimental animals, and analyses of blood samples of sentinel animals housed on shared shelf racks. All animals were allowed to acclimate and recover from any shipping-related stress for a minimum of 72 hours before experimental use. All animal experiments were conducted according to the guidelines of Chinese.
Xenograft tumor models were established with human tumor cell lines. […] Tumor growth was monitored twice per week until the tumor reached to a volume of 100 mm^3. […]
Mortality checks were conducted daily. Body weight of the mice was determined twice a week. […] Weight loss was calculated as percentage change in mean group body weight using the following formula: [(W−W0)/W0]×100, where ‘W’ represents mean body weight of the treated group at a particular day and ‘W0’ represents mean body weight of the same treated group at initiation of treatment. Tumor volumes (in mm3) were calculated after 21 days drug administration. […]
(Xenograft models place foreign cells or tissue in a host animal.)

[4] abbreviates: male, Sprague-Dawley, plasma, IV (5 mg/kg).
[5] abbreviates: male, Sprague-Dawley, plasma, PO (20 mg/kg).

For the compound `CCn1cc(-c2ccnc(Nc3cccc(S(N)(=O)=O)c3)n2)c2cccnc21` [Compound 18, 3-(4-(1-Ethyl-1H-pyrrolo[2,3-b]pyridin-3-yl)pyrimidin-2-ylamino)benzenesulfonamide], in data set [1] (PO (20 mg/kg) vs IV (5 mg/kg)), the “F*” value was found to be 67.51%. Also, in data set [1] (setting [4]), the AUC(0-inf) was 545 ng·h/mL, the exposure AUC(0-t) worked out at 543 ng·h/mL, the peak concentration (Cmax) was found to be 963 ng/mL and the time to peak (Tmax) was 4.98 min. For the same compound, in data set [1] (setting [4]), the clearance was 156 mL/min/kg, the half-life was 42 min and the MRT inf was found to be 0.67 h. For the same compound, in data set [1] (male, Sprague-Dawley, plasma, IV (5 mg/kg), read-out: Vz), the Vd was 9.6 L/kg. Moreover, in data set [1] (setting [5]), the total exposure AUC(0-inf) came out at 1490 ng·h/mL, the AUC(0-t) is 1470 ng·h/mL, the highest level (Cmax) was 895 ng/mL and the Tmax was determined as 34.8 min. In addition, in data set [1] (setting [5]), the half-life was 74.4 min and the MRT inf worked out at 1.67 h. Also, the “oral availability and t 1/2 after oral administration (in words)” value in data set [1] (oral administration) is “This result showed that compound 18 has good oral availability and t 1/2 after oral administration”. Also, the “% Tumor Growth Inhibition at Day 21” value in data set [2] (20 mg/kg) was 41.3%. For the same compound, the “% Tumor Growth Inhibition at Day 21” value in data set [2] (150 mg/kg) is 56.5%.

With `CCCn1cc(-c2ccnc(Nc3ccc(C)c(S(=O)(=O)N4CCOCC4)c3)n2)c2ccncc21` [Compound 102, N-(4-Methyl-3-(morpholinosulfonyl)phenyl)-4-(1-propyl-1H-pyrrolo[2,3-c]pyridin-3-yl)pyrimidin-2-amine], the “anti-tumor activities in xenograft mice” value in data set [3] is reported as “showed anti-tumor activities”.
